This note sets out measurements from patent publication US7803769B2 (priority 2006, dated 2010).

Bridge positions count the residues as written; N and C are the ends. Square brackets hold non-standard residues; d marks the D form. Peptide text beside a SMILES is read from it. 1Nal = N[C@@H](Cc1cccc2ccccc12)C(=O)O A value given as a limit tells only on which side of the number the result lay.

The IC50 is the point on the concentration scale where inhibition reaches its midpoint.

The target of one assay is T1, human Kv1.3 (CHO) (Homo sapiens, UniProt P22001).
T1 construct: expressed in transfected cells
Put plainly: cell-based.

Another assay has as its target T2, human Kv1.1 (HEK293) (Homo sapiens, UniProt Q09470).
T2 construct: expressed in transfected cells; host or cells: HEK293
Put plainly: cell-based.

T1 sequence (P22001 whole entry): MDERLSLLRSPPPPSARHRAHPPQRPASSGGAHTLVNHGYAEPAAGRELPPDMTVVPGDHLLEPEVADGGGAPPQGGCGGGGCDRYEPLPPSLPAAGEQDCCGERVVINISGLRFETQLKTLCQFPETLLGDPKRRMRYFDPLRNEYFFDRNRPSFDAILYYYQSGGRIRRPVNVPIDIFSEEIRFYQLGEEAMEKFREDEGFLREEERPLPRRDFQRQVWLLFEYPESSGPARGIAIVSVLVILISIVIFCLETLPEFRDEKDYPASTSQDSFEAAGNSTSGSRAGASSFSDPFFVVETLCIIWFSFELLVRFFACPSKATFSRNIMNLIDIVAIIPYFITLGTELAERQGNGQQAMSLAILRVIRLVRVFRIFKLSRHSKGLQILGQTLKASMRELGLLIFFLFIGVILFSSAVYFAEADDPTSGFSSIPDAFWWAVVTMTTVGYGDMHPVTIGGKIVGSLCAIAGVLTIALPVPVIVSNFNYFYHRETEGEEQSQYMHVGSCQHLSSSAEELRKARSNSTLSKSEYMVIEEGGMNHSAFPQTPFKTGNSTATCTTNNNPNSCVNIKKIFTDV
T2 sequence (Q09470 whole entry): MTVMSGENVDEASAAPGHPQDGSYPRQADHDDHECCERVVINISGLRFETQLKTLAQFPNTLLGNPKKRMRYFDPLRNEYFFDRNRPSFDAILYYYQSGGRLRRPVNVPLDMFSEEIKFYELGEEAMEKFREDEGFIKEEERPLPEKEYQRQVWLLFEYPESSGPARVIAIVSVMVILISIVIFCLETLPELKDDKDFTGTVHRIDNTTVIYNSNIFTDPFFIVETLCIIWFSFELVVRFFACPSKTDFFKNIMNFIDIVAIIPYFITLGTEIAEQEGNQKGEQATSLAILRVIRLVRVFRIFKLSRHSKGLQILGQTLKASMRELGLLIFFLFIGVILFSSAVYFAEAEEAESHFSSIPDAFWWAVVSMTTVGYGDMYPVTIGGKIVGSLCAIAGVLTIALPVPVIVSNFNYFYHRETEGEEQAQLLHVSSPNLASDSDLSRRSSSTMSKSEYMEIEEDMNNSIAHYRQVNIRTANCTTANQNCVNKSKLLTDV

On to `CC[C@H](C)[C@@H]1NC(=O)[C@H](CCCCN)NC(=O)[C@@H](NC(=O)[C@H](CCCCN)NC(=O)[C@@H](NC(=O)[C@H](CC(N)=O)NC(=O)[C@@H](NC(=O)[C@H](Cc2cccc3ccccc23)NC(=O)[C@@H](NC(=O)CN)C(C)C)[C@@H](C)CC)C(C)C)CSSC[C@@H]2NC(=O)[C@H](CCCCN)NC(=O)CNC(=O)[C@H](Cc3ccccc3)NC(=O)[C@H](CCCNC(=N)N)NC(=O)[C@H](CCSC)NC(=O)CNC(=O)[C@H](C)NC(=O)[C@H](CCCCN)NC(=O)[C@H](CCCCN)NC(=O)[C@@H]3CSSC[C@@H](C(=O)N[C@H](C(=O)N4CCC[C@H]4C(=O)N[C@@H](CCCCN)C(=O)O)[C@@H](C)O)NC(=O)[C@H](Cc4c[nH]cn4)NC(=O)[C@H](CSSC[C@H](NC(=O)[C@H](CCC(N)=O)NC(=O)[C@H](CCCNC(=N)N)NC(=O)[C@H](CO)NC1=O)C(=O)N[C@@H](CC(C)C)C(=O)N[C@@H](CCC(=O)O)C(=O)N1CCC[C@H]1C(=O)N3)NC(=O)[C@H](CCCCN)NC(=O)CNC(=O)[C@H](CC(N)=O)NC(=O)[C@H](CCSC)NC2=O` [I3Nal] (H-GV[1Nal]INVKCKISRQCLEPCKKAGMRFGKCMNGKCHCTPK-OH; disulfide 8-28, 14-33, 18-35), for which the values for the half-maximal inhibitory concentration (IC50) on human Kv1.3 (CHO) and against human Kv1.1 (HEK293) were 0.0103 nM and 0.00234 nM, respectively.
Consider `CC[C@H](C)[C@@H]1NC(=O)[C@H](CCCCN)NC(=O)[C@@H](NC(=O)[C@H](CCCCN)NC(=O)[C@@H](NC(=O)[C@H](CC(N)=O)NC(=O)[C@@H](NC(=O)[C@@H](NC(=O)[C@@H](NC(=O)CN)C(C)C)[C@@H](C)CC)[C@@H](C)CC)C(C)C)CSSC[C@@H]2NC(=O)[C@H](CCCCN)NC(=O)CNC(=O)[C@H](Cc3ccccc3)NC(=O)[C@H](CCCNC(=N)N)NC(=O)[C@H](CCSC)NC(=O)CNC(=O)[C@H](C)NC(=O)[C@H](CCCCN)NC(=O)[C@H](Cc3cccc4ccccc34)NC(=O)[C@@H]3CSSC[C@@H](C(=O)N[C@H](C(=O)N4CCC[C@H]4C(=O)N[C@@H](CCCCN)C(=O)O)[C@@H](C)O)NC(=O)[C@H](Cc4c[nH]cn4)NC(=O)[C@H](CSSC[C@H](NC(=O)[C@H](CCC(N)=O)NC(=O)[C@H](CCCNC(=N)N)NC(=O)[C@H](CO)NC1=O)C(=O)N[C@@H](CC(C)C)C(=O)N[C@@H](CCC(=O)O)C(=O)N1CCC[C@H]1C(=O)N3)NC(=O)[C@H](CCCCN)NC(=O)CNC(=O)[C@H](CC(N)=O)NC(=O)[C@H](CCSC)NC2=O` [K19Nal] (H-GVIINVKCKISRQCLEPC[1Nal]KAGMRFGKCMNGKCHCTPK-OH; disulfide 8-28, 14-33, 18-35), for which the results for the IC50 at human Kv1.3 (CHO) and against human Kv1.1 (HEK293) were 0.0172 nM and below 0.00152 nM, respectively.
For `CC[C@H](C)[C@@H]1NC(=O)[C@H](CCCCN)NC(=O)[C@@H](NC(=O)[C@H](CCCCN)NC(=O)[C@@H](NC(=O)[C@H](CC(N)=O)NC(=O)[C@@H](NC(=O)[C@@H](NC(=O)[C@@H](NC(=O)CN)C(C)C)[C@@H](C)CC)[C@@H](C)CC)C(C)C)CSSC[C@@H]2NC(=O)[C@H](CCCCN)NC(=O)CNC(=O)[C@H](Cc3ccccc3)NC(=O)[C@H](CCCNC(=N)N)NC(=O)[C@H](CCSC)NC(=O)CNC(=O)[C@H](C)NC(=O)[C@H](Cc3cccc4ccccc34)NC(=O)[C@H](CCCCN)NC(=O)[C@@H]3CSSC[C@@H](C(=O)N[C@H](C(=O)N4CCC[C@H]4C(=O)N[C@@H](CCCCN)C(=O)O)[C@@H](C)O)NC(=O)[C@H](Cc4c[nH]cn4)NC(=O)[C@H](CSSC[C@H](NC(=O)[C@H](CCC(N)=O)NC(=O)[C@H](CCCNC(=N)N)NC(=O)[C@H](CO)NC1=O)C(=O)N[C@@H](CC(C)C)C(=O)N[C@@H](CCC(=O)O)C(=O)N1CCC[C@H]1C(=O)N3)NC(=O)[C@H](CCCCN)NC(=O)CNC(=O)[C@H](CC(N)=O)NC(=O)[C@H](CCSC)NC2=O` [K20Nal] (H-GVIINVKCKISRQCLEPCK[1Nal]AGMRFGKCMNGKCHCTPK-OH; disulfide 8-28, 14-33, 18-35) the same measures were 0.0135 nM and below 0.00152 nM.
In the case of `CC[C@H](C)[C@@H]1NC(=O)[C@H](CCCCN)NC(=O)[C@@H](NC(=O)[C@H](CCCCN)NC(=O)[C@@H](NC(=O)[C@H](CC(N)=O)NC(=O)[C@@H](NC(=O)[C@@H](NC(=O)[C@@H](NC(=O)CN)C(C)C)[C@@H](C)CC)[C@@H](C)CC)C(C)C)CSSC[C@@H]2NC(=O)[C@H](CCCCN)NC(=O)CNC(=O)[C@H](Cc3ccccc3)NC(=O)[C@H](CCCNC(=N)N)NC(=O)[C@H](Cc3cccc4ccccc34)NC(=O)CNC(=O)[C@H](C)NC(=O)[C@H](CCCCN)NC(=O)[C@H](CCCCN)NC(=O)[C@@H]3CSSC[C@@H](C(=O)N[C@H](C(=O)N4CCC[C@H]4C(=O)N[C@@H](CCCCN)C(=O)O)[C@@H](C)O)NC(=O)[C@H](Cc4c[nH]cn4)NC(=O)[C@H](CSSC[C@H](NC(=O)[C@H](CCC(N)=O)NC(=O)[C@H](CCCNC(=N)N)NC(=O)[C@H](CO)NC1=O)C(=O)N[C@@H](CC(C)C)C(=O)N[C@@H](CCC(=O)O)C(=O)N1CCC[C@H]1C(=O)N3)NC(=O)[C@H](CCCCN)NC(=O)CNC(=O)[C@H](CC(N)=O)NC(=O)[C@H](CCSC)NC2=O` [M23Nal] (H-GVIINVKCKISRQCLEPCKKAG[1Nal]RFGKCMNGKCHCTPK-OH; disulfide 8-28, 14-33, 18-35), the IC50 against human Kv1.3 (CHO) is 0.036 nM; against human Kv1.1 (HEK293) it was 0.0644 nM.
For `CC[C@H](C)[C@@H]1NC(=O)[C@H](CCCCN)NC(=O)[C@@H](NC(=O)[C@H](CCCCN)NC(=O)[C@@H](NC(=O)[C@H](CC(N)=O)NC(=O)[C@@H](NC(=O)[C@@H](NC(=O)[C@@H](NC(=O)CN)C(C)C)[C@@H](C)CC)[C@@H](C)CC)C(C)C)CSSC[C@@H]2NC(=O)[C@H](CCCCN)NC(=O)CNC(=O)[C@H](Cc3ccccc3)NC(=O)[C@H](CCCNC(=N)N)NC(=O)[C@H](CCSC)NC(=O)CNC(=O)[C@H](C)NC(=O)[C@H](CCCCN)NC(=O)[C@H](CCCCN)NC(=O)[C@@H]3CSSC[C@@H](C(=O)N[C@H](C(=O)N4CCC[C@H]4C(=O)N[C@@H](CCCCN)C(=O)O)[C@@H](C)O)NC(=O)[C@H](Cc4c[nH]cn4)NC(=O)[C@H](CSSC[C@H](NC(=O)[C@H](CCC(N)=O)NC(=O)[C@H](CCCNC(=N)N)NC(=O)[C@H](CO)NC1=O)C(=O)N[C@@H](CC(C)C)C(=O)N[C@@H](CCC(=O)O)C(=O)N1CCC[C@H]1C(=O)N3)NC(=O)[C@H](CCCCN)NC(=O)CNC(=O)[C@H](CC(N)=O)NC(=O)[C@H](Cc1cccc3ccccc13)NC2=O` [M29Nal] (H-GVIINVKCKISRQCLEPCKKAGMRFGKC[1Nal]NGKCHCTPK-OH; disulfide 8-28, 14-33, 18-35) the same measures were 0.0935 nM and 0.0469 nM.
Regarding `CC[C@H](C)[C@@H]1NC(=O)[C@H](CCCCN)NC(=O)[C@@H](NC(=O)[C@H](CCCCN)NC(=O)[C@@H](NC(=O)[C@H](CC(N)=O)NC(=O)[C@@H](NC(=O)[C@@H](NC(=O)[C@@H](NC(=O)CN)C(C)C)[C@@H](C)CC)[C@@H](C)CC)C(C)C)CSSC[C@@H]2NC(=O)[C@H](CCCCN)NC(=O)CNC(=O)[C@H](Cc3ccccc3)NC(=O)[C@H](CCCNC(=N)N)NC(=O)[C@H](CCSC)NC(=O)CNC(=O)[C@H](C)NC(=O)[C@H](CCCCN)NC(=O)[C@H](CCCCN)NC(=O)[C@@H]3CSSC[C@@H](C(=O)N[C@H](C(=O)N4CCC[C@H]4C(=O)N[C@@H](CCCCN)C(=O)O)[C@@H](C)O)NC(=O)[C@H](Cc4c[nH]cn4)NC(=O)[C@H](CSSC[C@H](NC(=O)[C@H](Cc4cccc5ccccc45)NC(=O)[C@H](CCCNC(=N)N)NC(=O)[C@H](CO)NC1=O)C(=O)N[C@@H](CC(C)C)C(=O)N[C@@H](CCC(=O)O)C(=O)N1CCC[C@H]1C(=O)N3)NC(=O)[C@H](CCCCN)NC(=O)CNC(=O)[C@H](CC(N)=O)NC(=O)[C@H](CCSC)NC2=O` [Q13Nal] (H-GVIINVKCKISR[1Nal]CLEPCKKAGMRFGKCMNGKCHCTPK-OH; disulfide 8-28, 14-33, 18-35), the IC50 was 0.0134 nM at human Kv1.3 (CHO) and below 0.00152 nM at human Kv1.1 (HEK293).
In the case of `CC[C@H](C)[C@H](NC(=O)[C@H](C)NC(=O)CN)C(=O)N[C@H](C(=O)N[C@@H](CC(N)=O)C(=O)N[C@H](C(=O)N[C@@H](CCCCN)C(=O)N[C@H]1CSSC[C@@H]2NC(=O)[C@H](CCCCN)NC(=O)CNC(=O)[C@H](Cc3ccccc3)NC(=O)[C@H](CCCNC(=N)N)NC(=O)[C@H](CCSC)NC(=O)CNC(=O)[C@H](C)NC(=O)[C@H](CCCCN)NC(=O)[C@H](CCCCN)NC(=O)[C@@H]3CSSC[C@@H](C(=O)N[C@H](C(=O)N4CCC[C@H]4C(=O)N[C@@H](CCCCN)C(=O)O)[C@@H](C)O)NC(=O)[C@H](Cc4c[nH]cn4)NC(=O)[C@H](CSSC[C@H](NC(=O)[C@H](CCC(N)=O)NC(=O)[C@H](CCCNC(=N)N)NC(=O)[C@H](CO)NC(=O)[C@H]([C@@H](C)CC)NC(=O)[C@H](CCCCN)NC1=O)C(=O)N[C@@H](CC(C)C)C(=O)N[C@@H](CCC(=O)O)C(=O)N1CCC[C@H]1C(=O)N3)NC(=O)[C@H](CCCCN)NC(=O)CNC(=O)[C@H](CC(N)=O)NC(=O)[C@H](CCSC)NC2=O)C(C)C)[C@@H](C)CC` [V2A] (H-GAIINVKCKISRQCLEPCKKAGMRFGKCMNGKCHCTPK-OH; disulfide 8-28, 14-33, 18-35), the 50% inhibitory concentration (IC50) worked out at 0.0818 nM at human Kv1.3 (CHO) and 0.00994 nM at human Kv1.1 (HEK293).
In the case of `CC[C@H](C)[C@@H]1NC(=O)[C@H](CCCCN)NC(=O)[C@@H](NC(=O)[C@H](CCCCN)NC(=O)[C@@H](NC(=O)[C@H](CC(N)=O)NC(=O)[C@@H](NC(=O)[C@@H](NC(=O)[C@H](Cc2cccc3ccccc23)NC(=O)CN)[C@@H](C)CC)[C@@H](C)CC)C(C)C)CSSC[C@@H]2NC(=O)[C@H](CCCCN)NC(=O)CNC(=O)[C@H](Cc3ccccc3)NC(=O)[C@H](CCCNC(=N)N)NC(=O)[C@H](CCSC)NC(=O)CNC(=O)[C@H](C)NC(=O)[C@H](CCCCN)NC(=O)[C@H](CCCCN)NC(=O)[C@@H]3CSSC[C@@H](C(=O)N[C@H](C(=O)N4CCC[C@H]4C(=O)N[C@@H](CCCCN)C(=O)O)[C@@H](C)O)NC(=O)[C@H](Cc4c[nH]cn4)NC(=O)[C@H](CSSC[C@H](NC(=O)[C@H](CCC(N)=O)NC(=O)[C@H](CCCNC(=N)N)NC(=O)[C@H](CO)NC1=O)C(=O)N[C@@H](CC(C)C)C(=O)N[C@@H](CCC(=O)O)C(=O)N1CCC[C@H]1C(=O)N3)NC(=O)[C@H](CCCCN)NC(=O)CNC(=O)[C@H](CC(N)=O)NC(=O)[C@H](CCSC)NC2=O` [V2Nal] (H-G[1Nal]IINVKCKISRQCLEPCKKAGMRFGKCMNGKCHCTPK-OH; disulfide 8-28, 14-33, 18-35), the figures for the concentration for half-maximal inhibition (IC50) on human Kv1.3 (CHO) and on human Kv1.1 (HEK293) were 0.0116 nM and 0.00246 nM, respectively.
